From patent US20240009174A1, “METHODS FOR DISRUPTING MITOCHONDRIAL UNFOLDED PROTEIN RESPONSE” (Health Research, Inc., priority 2020, published 2024)

Columns and labels:
Assay type in all cases: cell-based
HSP60-ClpP interaction = target: T1, HSP60-ClpP interaction (Homo sapiens, UniProt P10809); experiment: Proximity ligation assay (PLA) of HSP60-ClpP in PCa cells; conditions: data not shown
T1 construct: endogenous in cells
Protocol: Identification of novel inhibitor of HSP60-ClpP interaction that disrupts UPR^mt function and induces PCa cell death. Having shown that two arms of UPR^mt, HSP60 chaperonin and ClpP protease interact and play critical role in PCa cell survival, an in silico analysis was performed and a small molecule library (developed by Enamine Ltd) was screened to identify drugs targeting the apical domain of HSP60 critical for its interaction with ClpP. 9 compounds (A-I) were identified and screened for their cell death inducing potential in PCa cells (data not shown). […] Colony forming ability of PCa cells was inhibited by DCEM1 treatment (data not shown).

[1] = test system: HSP60, HSP10, ClpP and LONP1; experiment: Expression of UPRmt components after DCEM1; conditions: PCa cells
[2] = test system: mitochondrial chaperonin activity in PCa cells; experiment: Mitochondrial Chaperonin Activity Assay (MiCAA); conditions: 24 h
Protocol: FIG. 10. Mitochondrial Chaperonin Activity Assay (MiCAA). PCa cells were treated with either DCEM1 (A) or ETB or Mizoribine (B) for 24 h and mitochondrial (Mito) chaperonin activity was analyzed as described in material and methods. In another experiment, PCa cells were transfected with siRNA to target HSP60 mRNA and mitochondrial chaperonin activity was analyzed (C). In (A), the bars in each series from left to right are DMSO and DCEM1. In (B), the bars in each series from left to right are DMSO, ETB, and MZR. In (C), the bars in each series from left to right are siMock, siHSP60-1, and siHSP60-2.
Since HSP60 chaperonin system is crucial for maintaining mitochondrial homeostasis in normal cells, a novel method, Mitochondrial Chaperonin Activity Assay (MiCAA), was developed to analyze chaperonin activity in live cells using flow cytometry to evaluate whether DCEM1 modulates mitochondrial chaperonin activity.

c-Myc, EZH2, AR, PSA = experiment: c-Myc, EZH2, AR and PSA protein expression in PCa cells; conditions: LNCaP, 24 hours
Protocol: FIG. 8. Pharmacological inhibition of HSP60-ClpP inhibit oncogenic signaling and PCa tumor growth in vivo. (A) LNCaP, PC-3 and 22RV1 cells were treated with DCEM1 and analyzed for c-Myc and EZH2 protein expression after 24 hours of treatment. (B) LNCaP, 22RV1 and VCaP cells were treated with DCEM1 and analyzed for AR and PSA protein expression after 24 hours of treatment. (C-D) 22RV1 cells (1×10^6 cells) were mixed with matrigel (50:50 v/v) and injected into each flank of SCID mice and treated with DCEM1 (60 mg/kg bw) through IP route twice weekly and tumors were harvested, photographed (C) and weighed (D) at 30 days. (E) DEVDase activity were analyzed in 22RV1 xenograft tumor tissue following DCEM1 treatment and represented as fold change compared to control. (F) 22RV1 xenograft tissue were sectioned and expression of ki67, c-Myc and EZH2 proteins were analyzed by Immunohistochemistry as described in material and methods. […] (I) DEVDase activity were analyzed in PC-3 xenograft tumor tissue following DCEM1 treatment and represented as fold change compared to control. […] All animals were sacrificed at 16 weeks of age and prostate tissue and tumors were harvested, whole cell lysate were prepared and analyzed for HSP60 and ClpP expression (N); c-Myc and EZH2 expression (0) and SYP and CK 8/18 expression (P) by immunoblotting. […]

T1 sequence (P10809 27-573): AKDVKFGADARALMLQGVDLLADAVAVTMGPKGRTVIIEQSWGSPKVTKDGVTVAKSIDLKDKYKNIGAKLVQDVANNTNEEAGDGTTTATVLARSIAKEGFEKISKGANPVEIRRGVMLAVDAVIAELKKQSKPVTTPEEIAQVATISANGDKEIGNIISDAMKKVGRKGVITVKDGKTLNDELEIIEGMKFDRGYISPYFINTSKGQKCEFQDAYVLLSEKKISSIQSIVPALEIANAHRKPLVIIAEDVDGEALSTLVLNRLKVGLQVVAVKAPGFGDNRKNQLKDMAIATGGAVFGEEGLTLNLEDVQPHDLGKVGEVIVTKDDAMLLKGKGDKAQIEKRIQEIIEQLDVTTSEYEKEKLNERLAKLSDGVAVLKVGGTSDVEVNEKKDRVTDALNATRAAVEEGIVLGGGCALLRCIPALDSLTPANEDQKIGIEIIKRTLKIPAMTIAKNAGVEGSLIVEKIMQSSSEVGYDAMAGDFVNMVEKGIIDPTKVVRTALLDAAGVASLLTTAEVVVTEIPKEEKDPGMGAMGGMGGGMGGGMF

**Q.** With CCOc1cc(CNCc2nc3ccccc3[nH]2)ccc1OCc1cccs1 [DCEM1] as the compound, how does the “HSP60-ClpP interaction by PLA” value (HSP60-ClpP interaction) read?
**A.** efficiently inhibited HSP60-ClpP interaction

**Q.** And the “expression of UPRmt components HSP60, HSP10, ClpP and LONP1” value [1]?
**A.** failed to alter

**Q.** And the mitochondrial chaperonin activity [2]?
**A.** did not modulate

**Q.** And the PSA levels (c-Myc, EZH2, AR, PSA; 22RV1 and VCaP cells)?
**A.** Decrease in PSA levels

**Q.** And the “c-Myc, EZH2, and AR signaling in PCa cells” value (c-Myc, EZH2, AR, PSA; PC-3, 22RV1, VCaP cells)?
**A.** downregulates c-Myc, EZH2, and AR signaling
